Patent publication US20100311714A1, “1H-IMIDAZO[4,5-c]QUINOLINONE COMPOUNDS” (priority 2009, published 2010)
Where two headings read alike, the source gives them in different places. One block for each compound: values may come before it.

Tests used:
[1] = test system: PKB Ser473 phosphorylation in Rat1-myr-HA-p110 delta cells; assay: Reverse protein array, PKB Ser473 phosphorylation in Rat1-myr-HA-p110 delta cells; type: cell-based; conditions: Rattus norvegicus, 0.5 h, 30 minutes compound incubation, read-out: p-PKB/IC50_delta
[2] = test system: S6 Ribosomal Protein phosphorylation Ser235/236 in TSC1 null mouse embryo fibroblast (MEF) cells; assay: Reverse protein array, S6 Ribosomal Protein phosphorylation in TSC1 null MEF cells; type: cell-based; conditions: 1 h, TSC1-/- MEFs, 60 minutes
Procedure, shortened: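 Phospho-S6 (Ser235/236) was quantified by reverse protein array of cell lysates with a phospho-specific primary antibody. […]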

SMILES: COc1cc(-c2ccc3ncc4c(c3c2)n(-c2ccc(N(C)C)nc2C)c(=O)n4C)cnc1CO [Example 19.4, 1-(6-Dimethylamino-2-methyl-pyridin-3-yl)-8-(6-hydroxymethyl-5-methoxy-pyridin-3-yl)-3-methyl-1,3-dihydro-imidazo[4,5-c]quinolin-2-one]
IC50 [1]: 0.0745 µM

SMILES: Cc1ncccc1-n1c(=O)n(C)c2cnc3ccc(-c4cnc5c(ccn5C)c4)cc3c21 [Example 2.14, 3-Methyl-1-(2-methyl-pyridin-3-yl)-8-(1-methyl-1H-pyrrolo[2,3-b]pyridin-5-yl)-1,3-dihydro-imidazo[4,5-c]quinolin-2-one]
IC50 [1]: 0.0617 µM
IC50 ([2]; read-out: p-S6): 0.00874 µM

SMILES: COCCOc1ccc(-n2c(=O)n(C)c3cnc4ccc(-c5cnc(COC)c(OC)c5)cc4c32)c(C)n1 [Example 22.3, 1-[6-(2-Methoxy-ethoxy)-2-methyl-pyridin-3-yl]-8-(5-methoxy-6-methoxymethyl-pyridin-3-yl)-3-methyl-1,3-dihydro-imidazo[4,5-c]quinolin-2-one]
IC50 [1]: 0.21 µM
IC50 ([2]; read-out: p-S6 IC50): 0.015 µM

SMILES: COc1ccc(-c2ccc3ncc4c(c3c2)n(-c2cccnc2)c(=O)n4C)cc1OC [Example 5.2, 8-(3,4-Dimethoxy-phenyl)-3-methyl-1-pyridin-3-yl-1,3-dihydro-imidazo[4,5-c]quinolin-2-one]
IC50 [1]: 0.0743 µM

SMILES: CCOc1ccc(-c2ccc3ncc4c(c3c2)n(-c2ccc(NC(=O)COC)nc2C)c(=O)n4C)cn1 [Example 20.2, N-{5-[8-(6-Ethoxy-pyridin-3-yl)-3-methyl-2-oxo-2,3-dihydro-imidazo[4,5-c]quinolin-1-yl]-6-methyl-pyridin-2-yl}-2-methoxy-acetamide]
IC50 [1]: 0.326 µM
IC50 ([2]; read-out: p-S6 IC50): 0.131 µM

SMILES: Cc1nc(F)ccc1-n1c(=O)n(C)c2cnc3ccc(-c4cncc(N)c4)cc3c21 [Example 7.16, 8-(5-Amino-pyridin-3-yl)-1-(6-fluoro-2-methyl-pyridin-3-yl)-3-methyl-1,3-dihydro-imidazo[4,5-c]quinolin-2-one]
IC50 [1]: 0.0785 µM
IC50 ([2]; read-out: p-S6 IC50): 0.026 µM

SMILES: CCOc1ccc(-c2ccc3ncc4c(c3c2)n(-c2cccnc2C)c(=O)n4C)cn1 [Example 2.1, 8-(6-Ethoxy-pyridin-3-yl)-3-methyl-1-(2-methyl-pyridin-3-yl)-1,3-dihydro-imidazo[4,5-c]quinolin-2-one]
IC50 [1]: 0.096 µM
IC50 ([2]; read-out: p-S6): 0.019 µM

SMILES: COc1ncccc1-n1c(=O)n(C)c2cnc3ccc(-c4cnc5c(ccn5C)c4)cc3c21 [Example 1.7, 1-(2-Methoxy-pyridin-3-yl)-3-methyl-8-(1-methyl-1H-pyrrolo[2,3-b]pyridin-5-yl)-1,3-dihydro-imidazo[4,5-c]quinolin-2-one]
IC50 [1]: 0.072 µM
IC50 ([2]; read-out: p-S6): 0.0121 µM

SMILES: CNC(=O)c1cc(-c2ccc3ncc4c(c3c2)n(-c2ccc(F)nc2C)c(=O)n4C)cnc1N [Example 7.14, 2-Amino-5-[1-(6-fluoro-2-methyl-pyridin-3-yl)-3-methyl-2-oxo-2,3-dihydro-1H-imidazo[4,5-c]quinolin-8-yl]-N-methyl-nicotinamide]
IC50 [1]: 0.14 µM

SMILES: COc1ccc(-c2ccc3ncc4c(c3c2)n(-c2cccnc2)c(=O)n4C)cn1 [Example 5.4, 8-(6-Methoxy-pyridin-3-yl)-3-methyl-1-pyridin-3-yl-1,3-dihydro-imidazo[4,5-c]quinolin-2-one]
IC50 [1]: 0.223 µM

SMILES: COc1ncccc1-n1c(=O)n(C)c2cnc3ccc(-c4ccc(F)nc4)cc3c21 [Example 1.8, 8-(6-Fluoro-pyridin-3-yl)-1-(2-methoxy-pyridin-3-yl)-3-methyl-1,3-dihydro-imidazo[4,5-c]quinolin-2-one]
IC50 [1]: 0.612 µM

SMILES: CNc1ncc(-c2ccc3ncc4c(c3c2)n(-c2ccc(F)nc2C)c(=O)n4C)cc1F [Example 7.12, 8-(5-Fluoro-6-methylamino-pyridin-3-yl)-1-(6-fluoro-2-methyl-pyridin-3-yl)-3-methyl-1,3-dihydro-imidazo[4,5-c]quinolin-2-one]
IC50 [1]: 0.0978 µM

SMILES: COc1ccc(-n2c(=O)n(C)c3cnc4ccc(-c5cnc(CO)c(OC)c5)cc4c32)c(C)n1 [Example 11.8, 8-(6-Hydroxymethyl-5-methoxy-pyridin-3-yl)-1-(6-methoxy-2-methyl-pyridin-3-yl)-3-methyl-1,3-dihydro-imidazo[4,5-c]quinolin-2-one]
IC50 [1]: 0.114 µM

SMILES: COCC(=O)Nc1ccc(-n2c(=O)n(C)c3cnc4ccc(-c5cncc(OC(C)C)c5)cc4c32)c(C)n1 [Example 20.5, N-{5-[8-(5-Isopropoxy-pyridin-3-yl)-3-methyl-2-oxo-2,3-dihydro-imidazo[4,5-c]quinolin-1-yl]-6-methyl-pyridin-2-yl}-2-methoxy-acetamide]
IC50 [1]: 0.352 µM

Stronger by IC50 [1], values ahead:

IC50 [1]: < 0.00457 µM
SMILES: CCNc1cc(-c2ccc3ncc4c(c3c2)n(-c2ccc(N(C)CC)nc2C)c(=O)n4C)cnc1C [Example 12.2, 8-(5-Ethylamino-6-methyl-pyridin-3-yl)-1-[6-(ethyl-methyl-amino)-2-methyl-pyridin-3-yl]-3-methyl-1,3-dihydro-imidazo[4,5-c]quinolin-2-one]
IC50 ([2]; read-out: p-S6 IC50): 0.003 µM

IC50 [1]: 0.0344 µM
SMILES: Cc1ccc(-n2c(=O)n(C)c3cnc4ccc(-c5cncc(NC(C)C)c5)cc4c32)c(C)n1 [Example 14.8, 1-(2,6-Dimethyl-pyridin-3-yl)-8-(5-isopropylamino-pyridin-3-yl)-3-methyl-1,3-dihydro-imidazo[4,5-c]quinolin-2-one]
IC50 ([2]; read-out: p-S6 IC50): 0.002 µM

IC50 [1]: 0.0081 µM
SMILES: CCNc1cc(-c2ccc3ncc4c(c3c2)n(-c2ccc(N3CC(F)(F)C3)nc2C)c(=O)n4C)cnc1CO [Example 24.3, 1-[6-(3,3-Difluoro-azetidin-1-yl)-2-methyl-pyridin-3-yl]-8-(5-ethylamino-6-hydroxymethyl-pyridin-3-yl)-3-methyl-1,3-dihydro-imidazo[4,5-c]quinolin-2-one]
IC50 ([2]; read-out: p-S6 IC50): < 0.000457 µM

IC50 [1]: 0.0205 µM
SMILES: CNc1ncc(-c2ccc3ncc4c(c3c2)n(-c2cccnc2C)c(=O)n4C)cn1 [Example 2.2, 3-Methyl-8-(2-methylamino-pyrimidin-5-yl)-1-(2-methyl-pyridin-3-yl)-1,3-dihydro-imidazo[4,5-c]quinolin-2-one]
IC50 ([2]; read-out: p-S6): 0.00533 µM

IC50 [1]: 0.0068 µM
SMILES: CCNc1cc(-c2ccc3ncc4c(c3c2)n(-c2ccc(N(C)CCOC)nc2C)c(=O)n4C)cnc1C [Example 15.6, 8-(5-Ethylamino-6-methyl-pyridin-3-yl)-1-{6-[(2-methoxy-ethyl)-methyl-amino]-2-methyl-pyridin-3-yl}-3-methyl-1,3-dihydro-imidazo[4,5-c]quinolin-2-one]
IC50 ([2]; read-out: p-S6 IC50): 0.003 µM

IC50 [1]: 0.0402 µM
SMILES: COc1nc(N2CCNCC2)ccc1-n1c(=O)n(C)c2cnc3ccc(-c4cnc(N(C)C)nc4)cc3c21 [Example 9.4, 8-(2-Dimethylamino-pyrimidin-5-yl)-1-(2-methoxy-6-piperazin-1-yl-pyridin-3-yl)-3-methyl-1,3-dihydro-imidazo[4,5-c]quinolin-2-one]
IC50 ([2]; read-out: p-S6 IC50): 0.006 µM

IC50 [1]: 0.0107 µM
SMILES: COc1ccc(-n2c(=O)n(C)c3cnc4ccc(-c5cnc(N)c(C(F)(F)F)c5)cc4c32)c(OC)n1 [Example 8.1, 8-(6-Amino-5-trifluoromethyl-pyridin-3-yl)-1-(2,6-dimethoxy-pyridin-3-yl)-3-methyl-1,3-dihydro-imidazo[4,5-c]quinolin-2-one]
IC50 ([2]; read-out: p-S6): 0.00107 µM

IC50 [1]: 0.0415 µM
SMILES: CCNc1cc(-c2ccc3ncc4c(c3c2)n(-c2ccc(F)nc2C)c(=O)n4C)cnc1CO [Example 7.9, 8-(5-Ethylamino-6-hydroxymethyl-pyridin-3-yl)-1-(6-fluoro-2-methyl-pyridin-3-yl)-3-methyl-1,3-dihydro-imidazo[4,5-c]quinolin-2-one]
IC50 ([2]; read-out: p-S6 IC50): 0.005 µM

IC50 [1]: 0.0313 µM
SMILES: CNc1ccc(-c2ccc3ncc4c(c3c2)n(-c2ccc(N(C)CCOC)nc2C)c(=O)n4C)cn1 [Example 15.4, 1-{6-[(2-Methoxy-ethyl)-methyl-amino]-2-methyl-pyridin-3-yl}-3-methyl-8-(6-methylamino-pyridin-3-yl)-1,3-dihydro-imidazo[4,5-c]quinolin-2-one]
IC50 ([2]; read-out: p-S6 IC50): 0.003 µM

IC50 [1]: 0.0388 µM
SMILES: COCCN(C)c1ccc(-n2c(=O)n(C)c3cnc4ccc(-c5cnc(CO)c(OC)c5)cc4c32)c(C)n1 [Example 15.9, 8-(6-Hydroxymethyl-5-methoxy-pyridin-3-yl)-1-{6-[(2-methoxy-ethyl)-methyl-amino]-2-methyl-pyridin-3-yl}-3-methyl-1,3-dihydro-imidazo[4,5-c]quinolin-2-one]

IC50 [1]: 0.0597 µM
SMILES: COCCN(C)c1ccc(-n2c(=O)n(C)c3cnc4ccc(-c5cncc(N)c5)cc4c32)c(C)n1 [Example 15.8, 8-(5-Amino-pyridin-3-yl)-1-{6-[(2-methoxy-ethyl)-methyl-amino]-2-methyl-pyridin-3-yl}-3-methyl-1,3-dihydro-imidazo[4,5-c]quinolin-2-one]
IC50 ([2]; read-out: p-S6 IC50): 0.006 µM

IC50 [1]: < 0.00457 µM
SMILES: CCNc1cc(-c2ccc3ncc4c(c3c2)n(-c2ccc(OC)nc2Cl)c(=O)n4C)cnc1C [Example 18.1, 1-(2-Chloro-6-methoxy-pyridin-3-yl)-8-(5-ethylamino-6-methyl-pyridin-3-yl)-3-methyl-1,3-dihydro-imidazo[4,5-c]quinolin-2-one]
IC50 ([2]; read-out: p-S6 IC50): < 0.000457 µM

IC50 [1]: 0.0171 µM
SMILES: CNc1cc(-c2ccc3ncc4c(c3c2)n(-c2ccc(F)nc2C)c(=O)n4C)cnc1CO [Example 7.11, 1-(6-Fluoro-2-methyl-pyridin-3-yl)-8-(6-hydroxymethyl-5-methylamino-pyridin-3-yl)-3-methyl-1,3-dihydro-imidazo[4,5-c]quinolin-2-one]
IC50 ([2]; read-out: p-S6 IC50): 0.007 µM

IC50 [1]: 0.0379 µM
SMILES: CNc1ncc(-c2ccc3ncc4c(c3c2)n(-c2ccc(F)nc2C)c(=O)n4C)cc1C(F)(F)F [Example 7.13, 1-(6-Fluoro-2-methyl-pyridin-3-yl)-3-methyl-8-(6-methylamino-5-trifluoromethyl-pyridin-3-yl)-1,3-dihydro-imidazo[4,5-c]quinolin-2-one]

IC50 [1]: 0.0464 µM
SMILES: Cc1nc(N(C)C)ccc1-n1c(=O)n(C)c2cnc3ccc(-c4cncc(N)c4)cc3c21 [Example 19.5, 8-(5-Amino-pyridin-3-yl)-1-(6-dimethylamino-2-methyl-pyridin-3-yl)-3-methyl-1,3-dihydro-imidazo[4,5-c]quinolin-2-one]
